Data on 43 compounds can be found in patent US20090191193A1, “Aryl Vinyl Sulfides, Sulfones, Sulfoxides and Sulfonamides, Derivatives Thereof and Therapeutic Uses Thereof” (TEMPLE UNIVERSITY-OF THE COMMONWEALTH SYSTEM OF HIGHER …, priority 2006, published 2009).

One data set deals with DU145 (prostate cancer). Nature of the data set: Effect on tumor cell lines, viable cell count by trypan blue exclusion (Latham et al.): DU145. The data set is classed as cell-based. The conditions noted are these: Homo sapiens, DU-145, 96 h, DU145 prostate cancer cells, viable cell count 96 hours after treatment.
Data set [1] concerns K562 (chronic myelogenous leukaemia). Nature of the data set: Effect on tumor cell lines, viable cell count by trypan blue exclusion (Latham et al.): K562. The data set is classed as cell-based. Particulars: Homo sapiens, K562, 96 h, K562 chronic myelogenous leukaemia cells, viable cell count 96 hours after treatment. Here is the method: The effect of the compounds of the invention on tumor cells was determined by the assay described by Latham et al., Oncogene 12:827-837 (1996). Tumor cells DU145 (prostate cancer), K562 (chronic myelogenous leukaemia), BT20 (breast carcinoma), H157 (non small cell lung carcinoma), or DLD1 (colon carcinoma) were plated in 6-well dishes at a cell density of 1.0×10^5 cells per 35-mm^2 well. […] The total number of viable cells was determined 96 hours later by trypsinizing the wells and counting the number of viable cells, as determined by trypan blue exclusion, using a hemacytometer. Normal HFL cells were treated with the same compounds under the same conditions of concentration and time.

In the case of `N#C/C(=C\c1c[nH]c2ccc(Br)cc12)S(=O)(=O)Cc1ccc(F)cc1` [Example 78], the melting point lay within 260 to 270 °C. Further, the IC50 with DU145 (prostate cancer) fell in the range of 50 to 100 µM. Also, the IC50 in data set [1] fell in the range of 50 to 100 µM.
In turn, `CCOc1ccc(/C=C(\C#N)S(=O)(=O)Cc2ccc(Cl)cc2)cc1OC` [Example 55] returned a melting point of 143 to 148 °C. The compound also gave an IC50 in the data set on DU145 (prostate cancer) of 10 to 25 µM. In addition, the IC50 in data set [1] lay in the range of 10 to 25 µM.
For `COc1ccccc1/C=C(\C#N)S(=O)(=O)Nc1ccc(F)cc1` [Example 247], the melting point was in the range of 152 to 154 °C. In addition, the IC50 in the data set on DU145 (prostate cancer) is greater than 100 µM. Besides, the IC50 in data set [1] is greater than 100 µM.
As for `N#C/C(=C\c1ccc(O)cc1O)S(=O)(=O)Cc1ccc(Cl)cc1Cl` [Example 92], the melting point was 220 to 230 °C. In the data set with DU145 (prostate cancer), this compound registered an IC50 of 50 to 100 µM. For the same compound, the concentration for half-maximal inhibition (IC50) in data set [1] lay within 25 to 50 µM.
The like results for `COc1ccc(NS(=O)(=O)/C(C#N)=C/c2ccc(Cl)c(Cl)c2)cc1` [Example 288] were, in that order, 84 to 86 °C, 50 to 100 µM and 25 to 50 µM.
The like results for `N#C/C(=C\c1ccc(Cl)cc1Cl)S(=O)(=O)Cc1ccc(F)cc1` [Example 85] were, in that order, 153 to 163 °C, greater than 100 µM and 50 to 100 µM.
The compound `N#C/C(=C\c1c(F)c(F)c(F)c(F)c1F)S(=O)(=O)Cc1ccc(Br)cc1` [Example 19] displayed a melting point of 146 to 148 °C. This compound also came in with an IC50 with DU145 (prostate cancer) of 50 µM. Besides, half-maximal inhibition in data set [1] (IC50) required 10 µM.
The like results for `CN(C)c1ccc(/C=C(\C#N)S(=O)(=O)Cc2ccc(F)cc2)cc1` [Example 64] were, in that order, 135 to 145 °C, 50 to 100 µM and 50 to 100 µM.
In the same order, the values of `N#C/C(=C\c1ccccc1Cl)S(=O)(=O)Cc1ccccc1` [Example 130] are 155 to 160 °C, greater than 100 µM and greater than 100 µM.
In the same order, the values of `COc1ccc(NS(=O)(=O)/C(C#N)=C/c2ccc(Br)cc2)cc1` [Example 190] are 106 to 107 °C, 50 µM and 50 µM.
`COc1ccc(/C=C(\C#N)S(=O)(=O)Cc2ccc(F)cc2)cc1O` [Example 80] showed a melting point of 193 to 205 °C. Besides, the IC50 in the data set with DU145 (prostate cancer) is greater than 100 µM. The IC50 in data set [1] fell in the range of 50 to 100 µM.
The like results for `CCOc1ccc(/C=C(\C#N)S(=O)(=O)Nc2ccc(Br)cc2)cc1OC` [Example 219] were, in that order, 188 to 190 °C, 50 to 100 µM and 50 to 100 µM.
The like results for `CCOc1ccc(/C=C(\C#N)S(=O)(=O)Cc2ccc(Cl)cc2Cl)cc1OC` [Example 94] were, in that order, 126 to 131 °C, 50 to 100 µM and 25 to 50 µM.
`N#C/C(=C\c1ccc(O)c(O)c1)S(=O)(=O)Cc1cccc(Br)c1` [Example 116] registered a melting point of 119 to 121 °C. In the data set with DU145 (prostate cancer), this compound returned an IC50 greater than 100 µM. This compound returned a half-inhibitory concentration (IC50) in data set [1] greater than 100 µM.
Compound `Cc1ccc(/C=C(\C#N)S(=O)(=O)Nc2ccc(F)cc2)cc1C` [Example 244] returned a melting point of 141 to 142 °C. Further, the IC50 with DU145 (prostate cancer) is greater than 100 µM. The IC50 in data set [1] is greater than 100 µM.
Take `N#C/C(=C\c1ccc(Cl)cc1)S(=O)(=O)Nc1ccccc1Oc1ccccc1` [Example 207]: the melting point lay in the range of 136 to 138 °C. The same compound had an IC50 with DU145 (prostate cancer) of 50 to 100 µM. The compound also showed an IC50 in data set [1] of 50 to 100 µM.
Turning to `Cc1ccc(NS(=O)(=O)/C(C#N)=C/c2ccc(N(C)C)cc2)c(C)c1` [Example 255], the melting point is 168 to 171 °C. This compound also showed an IC50 in the data set with DU145 (prostate cancer) of 25 to 50 µM. The IC50 in data set [1] was in the range of 25 to 50 µM.
With `COc1ccc(/C=C(\C#N)S(=O)(=O)Cc2ccc(OC)cc2)cc1` [Example 141], the melting point is 163 to 167 °C. In the data set with DU145 (prostate cancer), this compound gave an IC50 greater than 100 µM. Moreover, the IC50 in data set [1] is greater than 100 µM.
`COc1cc(/C=C(\C#N)S(=O)(=O)Cc2ccc(F)cc2)cc(OC)c1` [Example 86] gave a melting point of 120 to 123 °C. The IC50 in the data set on DU145 (prostate cancer) is greater than 100 µM. This compound displayed an IC50 in data set [1] greater than 100 µM.
For `N#C/C(=C\c1ccc(Cl)c(Cl)c1)S(=O)(=O)Cc1ccc(Cl)cc1` [Example 52], the melting point lay in the range of 145 to 155 °C. The same compound came in with an IC50 in the data set on DU145 (prostate cancer) of 25 to 50 µM. This compound also returned an IC50 in data set [1] of 10 to 25 µM.
In the same order, the values of `N#C/C(=C\c1ccccc1Cl)S(=O)(=O)Nc1ccc(F)cc1` [Example 235] are 182 to 184 °C, 25 to 50 µM and 10 to 25 µM.
The like results for `N#C/C(=C\c1ccccc1Cl)S(=O)(=O)Cc1ccc(F)cc1` [Example 145] were, in that order, 159 to 163 °C, greater than 100 µM and greater than 100 µM.
`N#C/C(=C\c1ccc(Cl)cc1Cl)S(=O)(=O)Cc1ccc(Cl)cc1` [Example 51] yielded a melting point of 121 to 126 °C. The compound also yielded an IC50 in the data set with DU145 (prostate cancer) of 25 to 50 µM. The same compound returned an IC50 in data set [1] of 25 to 50 µM.
`N#C/C(=C\c1c(F)c(F)c(F)c(F)c1F)S(=O)(=O)Nc1ccc(Br)cc1` [Example 221] displayed a melting point of 174 to 176 °C. The compound further showed an IC50 with DU145 (prostate cancer) of 1 to 10 µM. In addition, the IC50 in data set [1] was less than 1 µM.
In the same order, the values of `N#C/C(=C\c1ccc(F)cc1F)S(=O)(=O)Nc1ccc(F)cc1` [Example 240] are 135 to 139 °C, 50 to 100 µM and 50 to 100 µM.
Compound `CCOc1cc(/C=C(\C#N)S(=O)(=O)Nc2ccc(C)cc2C)ccc1O` [Example 275] returned a melting point of 146 to 148 °C. Moreover, the IC50 in the data set on DU145 (prostate cancer) was greater than 100 µM. For the same compound, the IC50 in data set [1] was in the range of 50 to 100 µM.
For the compound `Cc1ccc(NS(=O)(=O)/C(C#N)=C/c2ccc(C)c(C)c2)c(C)c1` [Example 264], the melting point was in the range of 166 to 169 °C. The IC50 in the data set on DU145 (prostate cancer) was greater than 100 µM. The compound also had a 50% inhibitory concentration (IC50) in data set [1] greater than 100 µM.
`N#C/C(=C\c1ccc(F)cc1F)S(=O)(=O)Nc1ccc(Br)cc1` [Example 226] showed a melting point of 165 to 166 °C. This compound displayed an IC50 in the data set on DU145 (prostate cancer) of 25 to 50 µM. Further, the IC50 in data set [1] was 25 to 50 µM.
As for `COc1ccc(NS(=O)(=O)/C(C#N)=C/c2ccc(N(C)C)cc2)cc1` [Example 280], the melting point is 166 to 169 °C. Also, the IC50 in the data set on DU145 (prostate cancer) is greater than 100 µM. Besides, in data set [1], the IC50 was in the range of 50 to 100 µM.
The like results for `Cc1ccc(NS(=O)(=O)/C(C#N)=C/c2ccc(Br)cc2)c(C)c1` [Example 262] were, in that order, 164 to 166 °C, 25 to 50 µM and 10 to 25 µM.
The like results for `Cc1ccc(/C=C(\C#N)S(=O)(=O)Cc2ccc(F)cc2)cc1C` [Example 88] were, in that order, 122 to 132 °C, 25 to 50 µM and 10 to 25 µM.
In the same order, the values of `COc1cc(OC)c(/C=C(\C#N)S(=O)(=O)Cc2ccc(F)cc2)c(OC)c1` [Example 79] are 182 to 192 °C, greater than 100 µM and 50 to 100 µM.
Regarding `COc1ccc(/C=C(\C#N)S(=O)(=O)Nc2ccc(C)cc2C)cc1` [Example 270], the melting point lay within 127 to 129 °C. In the data set with DU145 (prostate cancer), the IC50 was greater than 100 µM. The IC50 in data set [1] is greater than 100 µM.
In turn, `N#C/C(=C\c1c[nH]c2ccccc12)S(=O)(=O)Cc1ccc(Cl)cc1` [Example 68] came in with a melting point of 200 to 205 °C. This compound had an IC50 with DU145 (prostate cancer) of 25 to 50 µM. This compound also came in with an IC50 in data set [1] of 10 to 25 µM.
In the same order, the values of `COc1ccc(NS(=O)(=O)/C(C#N)=C/c2sccc2C)cc1` [Example 281] are 154 to 156 °C, greater than 100 µM and greater than 100 µM.
In the same order, the values of `COc1ccc(/C=C(\C#N)S(=O)(=O)Cc2ccc(Cl)cc2)c(OC)c1OC` [Example 46] are 120 to 128 °C, greater than 100 µM and greater than 100 µM.
Consider `N#C/C(=C\c1c[nH]c2ccc(Br)cc12)S(=O)(=O)Cc1ccc(Cl)cc1Cl` [Example 71], for which the melting point lay in the range of 264 to 275 °C. In addition, the IC50 with DU145 (prostate cancer) was 50 to 100 µM. This compound also returned an IC50 in data set [1] of 50 to 100 µM.
Consider `Cc1ccc(C)c(/C=C(\C#N)S(=O)(=O)Nc2ccc(Br)cc2)c1` [Example 229], for which the melting point lay in the range of 172 to 174 °C. The compound further showed an IC50 with DU145 (prostate cancer) of 50 to 100 µM. Also, the IC50 in data set [1] fell in the range of 25 to 50 µM.
The like results for `Cc1ccsc1/C=C(\C#N)S(=O)(=O)Nc1ccc(F)cc1` [Example 236] were, in that order, 179 to 181 °C, greater than 100 µM and 50 to 100 µM.
In the same order, the values of `CN(C)c1ccc(/C=C(\C#N)S(=O)(=O)Nc2ccc(F)cc2)cc1` [Example 233] are 179 to 180 °C, greater than 100 µM and 50 to 100 µM.
In the same order, the values of `N#C/C(=C\c1c[nH]c2ccccc12)S(=O)(=O)Nc1ccccc1Oc1ccccc1` [Example 197] are 210 to 212 °C, 50 to 100 µM and 50 to 100 µM.
`Cc1ccc(NS(=O)(=O)/C(C#N)=C/c2sccc2C)c(C)c1` [Example 257] registered a melting point of 166 to 168 °C. In addition, in the data set with DU145 (prostate cancer), the IC50 lay within 50 to 100 µM. In data set [1], this compound returned a half-maximal inhibitory concentration (IC50) of 10 to 25 µM.
As to `Cc1ccc(NS(=O)(=O)/C(C#N)=C/c2cc(C)ccc2C)c(C)c1` [Example 259], the melting point was 139 to 141 °C. The compound further gave an IC50 with DU145 (prostate cancer) greater than 100 µM. The IC50 in data set [1] was in the range of 50 to 100 µM.
